# Source: ChEMBL document CHEMBL5042504 (J Med Chem, 2022)
# Active and inactive are the calls of the source. The calls are words filed in the database; no cut-off is given here.
# Key:
# U-937 = assay: Antiproliferative activity against human U-937 cells assessed as reduction in cell viability after 48 hrs by MTT assay; conditions: U-937, 48 h
# MV4-11 = assay: Up regulation of acetylated histoneH4 in expression in human MV4-11 cells at 100 nM measured after 24 hrs by Western blot analysis; assay type: functional, cell-based
# Histone deacetylase 5 = Histone deacetylase 5 (Homo sapiens, UniProt Q9UQL6); assay: Inhibition of human recombinant HDAC5 using Boc-Lys(triflouroacetyI)-AMC substrate incubated for 2 hrs by fluorescence based assay
# Histone deacetylase 5, sequence (Q9UQL6 whole entry): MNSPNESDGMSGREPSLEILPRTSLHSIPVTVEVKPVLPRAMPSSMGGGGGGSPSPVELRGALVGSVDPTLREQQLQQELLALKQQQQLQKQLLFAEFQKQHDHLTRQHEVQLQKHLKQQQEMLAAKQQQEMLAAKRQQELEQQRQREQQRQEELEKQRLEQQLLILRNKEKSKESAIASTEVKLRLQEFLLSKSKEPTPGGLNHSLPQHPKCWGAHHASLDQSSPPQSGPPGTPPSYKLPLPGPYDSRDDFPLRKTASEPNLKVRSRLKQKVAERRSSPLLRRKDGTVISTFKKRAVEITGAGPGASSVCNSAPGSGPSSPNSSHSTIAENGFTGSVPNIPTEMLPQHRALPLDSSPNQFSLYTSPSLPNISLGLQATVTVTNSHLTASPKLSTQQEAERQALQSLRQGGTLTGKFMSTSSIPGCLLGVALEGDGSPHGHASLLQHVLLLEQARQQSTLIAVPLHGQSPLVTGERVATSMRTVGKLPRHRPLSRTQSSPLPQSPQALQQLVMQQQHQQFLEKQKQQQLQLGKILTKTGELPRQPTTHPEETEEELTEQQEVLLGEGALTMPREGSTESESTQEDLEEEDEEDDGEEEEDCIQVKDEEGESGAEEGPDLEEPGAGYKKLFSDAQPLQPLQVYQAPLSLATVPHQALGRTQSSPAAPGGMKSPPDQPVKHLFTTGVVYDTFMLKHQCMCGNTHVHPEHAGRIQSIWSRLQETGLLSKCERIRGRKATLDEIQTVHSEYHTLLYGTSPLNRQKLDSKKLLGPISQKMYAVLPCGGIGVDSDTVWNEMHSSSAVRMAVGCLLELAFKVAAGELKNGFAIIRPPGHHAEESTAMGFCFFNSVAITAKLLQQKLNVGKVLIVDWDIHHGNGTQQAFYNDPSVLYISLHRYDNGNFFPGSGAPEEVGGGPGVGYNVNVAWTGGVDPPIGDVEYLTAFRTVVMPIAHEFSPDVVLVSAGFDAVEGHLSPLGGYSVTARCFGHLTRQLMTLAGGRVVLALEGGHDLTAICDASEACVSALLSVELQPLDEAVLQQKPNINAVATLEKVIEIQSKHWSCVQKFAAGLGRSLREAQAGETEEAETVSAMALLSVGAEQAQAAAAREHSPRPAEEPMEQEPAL
# Histone deacetylase 9 = Histone deacetylase 9 (Homo sapiens, UniProt Q9UKV0); assay: Inhibition of human recombinant HDAC9 using Boc-Lys(triflouroacetyI)-AMC substrate incubated for 2 hrs by fluorescence based assay
# Histone deacetylase 9, sequence (Q9UKV0 whole entry): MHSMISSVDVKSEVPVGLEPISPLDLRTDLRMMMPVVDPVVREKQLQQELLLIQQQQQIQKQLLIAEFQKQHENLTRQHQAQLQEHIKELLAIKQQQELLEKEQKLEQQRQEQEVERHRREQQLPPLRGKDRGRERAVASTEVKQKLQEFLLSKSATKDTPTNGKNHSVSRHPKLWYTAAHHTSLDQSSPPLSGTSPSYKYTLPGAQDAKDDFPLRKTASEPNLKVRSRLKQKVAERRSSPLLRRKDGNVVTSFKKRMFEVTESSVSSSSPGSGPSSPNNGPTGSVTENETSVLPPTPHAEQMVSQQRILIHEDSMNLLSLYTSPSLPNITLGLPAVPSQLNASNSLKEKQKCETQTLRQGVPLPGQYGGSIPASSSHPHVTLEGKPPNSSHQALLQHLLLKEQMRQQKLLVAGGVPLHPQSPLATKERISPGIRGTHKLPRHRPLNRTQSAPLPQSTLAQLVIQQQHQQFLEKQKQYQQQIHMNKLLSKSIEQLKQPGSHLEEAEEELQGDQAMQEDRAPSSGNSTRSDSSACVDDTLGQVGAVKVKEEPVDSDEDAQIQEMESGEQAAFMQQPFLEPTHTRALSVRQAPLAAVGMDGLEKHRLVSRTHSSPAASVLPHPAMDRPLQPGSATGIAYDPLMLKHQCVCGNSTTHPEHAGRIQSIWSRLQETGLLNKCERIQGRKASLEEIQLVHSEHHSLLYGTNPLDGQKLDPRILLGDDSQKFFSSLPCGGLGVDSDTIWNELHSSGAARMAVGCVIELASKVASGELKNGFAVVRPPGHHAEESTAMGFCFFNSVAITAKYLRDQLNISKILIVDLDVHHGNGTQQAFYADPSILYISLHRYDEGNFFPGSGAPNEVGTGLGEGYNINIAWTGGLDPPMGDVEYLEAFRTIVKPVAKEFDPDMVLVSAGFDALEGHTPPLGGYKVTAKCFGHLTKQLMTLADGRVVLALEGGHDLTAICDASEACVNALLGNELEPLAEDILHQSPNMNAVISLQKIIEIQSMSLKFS
# HL-60 = assay: Antiproliferative activity against human HL-60 cells assessed as reduction in cell viability after 48 hrs by multiplate reader method; conditions: HL-60, 48 h
# Histone deacetylase 4 = Histone deacetylase 4 (Homo sapiens, UniProt P56524); assay: Inhibition of human recombinant HDAC4 using Boc-Lys(triflouroacetyI)-AMC substrate incubated for 2 hrs by fluorescence based assay
# Histone deacetylase 4, sequence (P56524 whole entry): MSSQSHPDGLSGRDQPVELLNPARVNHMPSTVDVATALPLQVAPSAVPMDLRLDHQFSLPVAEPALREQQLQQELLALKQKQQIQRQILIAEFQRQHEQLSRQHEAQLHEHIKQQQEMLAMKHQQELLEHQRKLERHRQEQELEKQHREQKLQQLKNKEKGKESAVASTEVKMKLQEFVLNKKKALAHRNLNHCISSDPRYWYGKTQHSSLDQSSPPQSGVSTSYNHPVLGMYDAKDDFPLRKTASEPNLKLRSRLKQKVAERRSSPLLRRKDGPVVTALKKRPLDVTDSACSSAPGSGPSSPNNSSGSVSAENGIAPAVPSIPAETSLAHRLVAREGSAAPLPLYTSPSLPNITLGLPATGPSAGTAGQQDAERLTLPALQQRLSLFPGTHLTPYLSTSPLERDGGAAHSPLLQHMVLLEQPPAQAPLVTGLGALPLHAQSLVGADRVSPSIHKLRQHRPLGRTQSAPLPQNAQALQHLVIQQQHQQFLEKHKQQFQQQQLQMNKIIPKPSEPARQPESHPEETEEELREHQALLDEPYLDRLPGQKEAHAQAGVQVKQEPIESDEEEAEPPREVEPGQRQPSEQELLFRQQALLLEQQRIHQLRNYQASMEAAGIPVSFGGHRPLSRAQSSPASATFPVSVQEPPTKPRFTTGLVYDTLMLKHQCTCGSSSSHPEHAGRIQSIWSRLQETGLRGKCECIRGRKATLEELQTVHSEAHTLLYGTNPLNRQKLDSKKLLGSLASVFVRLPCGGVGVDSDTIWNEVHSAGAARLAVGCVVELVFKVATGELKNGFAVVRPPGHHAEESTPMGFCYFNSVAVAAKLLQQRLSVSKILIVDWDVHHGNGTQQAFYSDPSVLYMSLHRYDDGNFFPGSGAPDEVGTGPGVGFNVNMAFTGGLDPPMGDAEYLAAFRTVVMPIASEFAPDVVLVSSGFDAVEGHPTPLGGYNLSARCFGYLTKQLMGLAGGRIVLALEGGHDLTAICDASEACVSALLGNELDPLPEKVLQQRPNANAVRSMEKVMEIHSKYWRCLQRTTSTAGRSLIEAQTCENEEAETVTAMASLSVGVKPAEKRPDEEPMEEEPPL
# RS4-11 = assay: Antiproliferative activity against human RS4-11 cells assessed as reduction in cell viability measured after 48 hrs by multiplate reader method; conditions: RS4-11, 48 h
# Histone deacetylase 7 = target: T1, Histone deacetylase 7 (Homo sapiens, UniProt Q8WUI4); assay: Inhibition of human recombinant HDAC7 using Boc-Lys(triflouroacetyI)-AMC substrate incubated for 2 hrs by fluorescence based assay
# T1 sequence (Q8WUI4 whole entry): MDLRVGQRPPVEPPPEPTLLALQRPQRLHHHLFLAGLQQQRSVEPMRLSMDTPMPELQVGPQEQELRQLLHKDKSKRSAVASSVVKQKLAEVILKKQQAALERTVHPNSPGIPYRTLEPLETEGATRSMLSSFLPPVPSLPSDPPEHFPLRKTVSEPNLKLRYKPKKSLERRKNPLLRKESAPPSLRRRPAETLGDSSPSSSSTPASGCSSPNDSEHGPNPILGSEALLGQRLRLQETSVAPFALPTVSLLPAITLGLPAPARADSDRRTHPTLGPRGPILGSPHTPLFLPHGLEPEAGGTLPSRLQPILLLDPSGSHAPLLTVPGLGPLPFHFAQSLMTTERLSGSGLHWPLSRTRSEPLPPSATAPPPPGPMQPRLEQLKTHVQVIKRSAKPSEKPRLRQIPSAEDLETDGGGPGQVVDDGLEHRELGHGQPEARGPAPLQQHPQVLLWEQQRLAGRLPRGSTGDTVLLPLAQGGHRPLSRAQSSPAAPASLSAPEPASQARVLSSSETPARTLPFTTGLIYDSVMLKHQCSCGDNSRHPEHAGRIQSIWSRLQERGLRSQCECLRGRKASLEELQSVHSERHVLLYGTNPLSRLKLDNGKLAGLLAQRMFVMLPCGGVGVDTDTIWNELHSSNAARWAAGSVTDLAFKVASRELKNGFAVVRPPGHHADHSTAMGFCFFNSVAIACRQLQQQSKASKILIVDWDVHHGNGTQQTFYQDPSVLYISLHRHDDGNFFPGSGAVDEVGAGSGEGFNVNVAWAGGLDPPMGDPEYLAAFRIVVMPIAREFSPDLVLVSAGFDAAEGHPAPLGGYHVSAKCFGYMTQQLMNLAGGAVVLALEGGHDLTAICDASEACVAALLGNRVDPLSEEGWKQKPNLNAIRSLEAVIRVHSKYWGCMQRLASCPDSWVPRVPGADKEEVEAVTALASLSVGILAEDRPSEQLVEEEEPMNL
# Histone deacetylase 11 = target: T2, Histone deacetylase 11 (Homo sapiens, UniProt Q96DB2); assay: Inhibition of human recombinant HDAC11 using Boc-Lys(triflouroacetyI)-AMC substrate incubated for 2 hrs by fluorescence based assay
# T2 sequence (Q96DB2 whole entry): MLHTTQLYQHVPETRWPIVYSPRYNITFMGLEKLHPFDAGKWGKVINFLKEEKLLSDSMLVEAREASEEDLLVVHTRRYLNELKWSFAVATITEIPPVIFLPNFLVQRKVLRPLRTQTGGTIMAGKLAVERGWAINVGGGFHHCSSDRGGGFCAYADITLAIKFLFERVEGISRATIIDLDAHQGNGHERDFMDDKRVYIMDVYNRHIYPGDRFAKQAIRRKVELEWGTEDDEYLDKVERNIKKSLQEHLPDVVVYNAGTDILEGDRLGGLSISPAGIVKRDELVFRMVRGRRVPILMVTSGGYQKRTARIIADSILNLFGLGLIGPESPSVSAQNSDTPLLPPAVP
structure (smiles),measurement,setting,value
CCCNNC(=O)c1ccc(CNC(=O)c2cc3ccccc3[nH]2)cc1,IC50,U-937,60.5 nM
same,Activity,MV4-11,Active
same,IC50,Histone deacetylase 5,> 5000 nM
same,IC50,Histone deacetylase 9,> 5000 nM
same,IC50,HL-60,26.2 nM
same,IC50,Histone deacetylase 4,> 5000 nM
same,IC50,RS4-11,31.5 nM
same,IC50,Histone deacetylase 7,> 5000 nM
same,IC50,Histone deacetylase 11,> 5000 nM
CCCNNC(=O)c1ccc(CNC(=O)/C=C/c2ccccc2)cc1,IC50,U-937,161 nM
same,Activity,MV4-11,Active
same,IC50,Histone deacetylase 5,> 5000 nM
same,IC50,Histone deacetylase 9,> 5000 nM
same,IC50,HL-60,51.7 nM
same,IC50,Histone deacetylase 4,> 5000 nM
same,IC50,RS4-11,82 nM
same,IC50,Histone deacetylase 7,> 5000 nM
same,IC50,Histone deacetylase 11,> 5000 nM
